These results are taken from PMC7287649, “Hypoxia-Activated Prodrug Derivatives of Carbonic Anhydrase Inhibitors in Benzenesulfonamide Series: Synthesis and Biological Evaluation” (Molecules, 2020).

The target of series [1] is hCA I (Homo sapiens, UniProt P00915). The series is described as follows: stopped flow CO2 hydrase assay, hCA I.
Experimental: (§7) An Sx.18Mv-R Applied Photophysics (Oxford, UK) stopped-flow instrument was used for assaying the CA catalyzed CO2 hydration activity. […] In particular, CO2 was bubbled in distilled deionized water for 30 min so that the water was saturated (the concentration at a specific temperature is known from literature). In addition, a CO2 assay kit (from Merck, Darmstadt, Germany) was used to measure the concentration in variously diluted solutions obtained from the saturated one (which was kept at the same temperature and a constant bubbling during the experiments). […] The uncatalyzed rates were determined in the same manner and subtracted from the total observed rates. Stock solutions of inhibitor (0.1 mM) were prepared in distilled deionized water and dilutions up to 0.01 nM were done thereafter with distilled deionized water. Inhibitor and enzyme solutions were pre-incubated together for 15 min–2 h (or longer, i.e., 4–6 h) at room temperature (at 4 °C for the incubation periods longer than 15 min) prior to assay, in order to allow for the formation of the EI complex. The inhibition constants were obtained by non-linear least-squares methods using PRISM 3 and the Cheng–Prusoff equation, as reported earlier [38, 39], and represent the mean from at least three different determinations. hCA I was purchased by Merck (Darmstadt, Germany) and used without further purification, whereas all the other hCA isoforms were recombinant ones obtained in-house as reported earlier [40].
Series [2] concerns the target hCA IX (Homo sapiens, UniProt Q16790). The series is described as follows: stopped flow CO2 hydrase assay, hCA IX. The following applies: for Selectivity Ratio KI hCA II/KI hCA IX: hCA II over hCA IX.
Experimental: as §7
The subject of series [3] is HCT116 cells. The series is described as follows: alamarBlue cell viability assay, HCT116. The class given is cell-based, human. The note with it: for IC50: Homo sapiens, HCT-116, 2 h exposure, 72 h regrowth. Here is the method:
(§1) Human colorectal HCT116 and HT29 carcinoma cells were cultured in Dulbecco’s Modified Eagle Medium (DMEM, Lonza) supplemented with 10% fetal bovine serum and 1% PenStrep. Cells were exposed to anoxic conditions for 24 h in a hypoxic chamber (MACS VA500 microaerophilic workstation, Don Whitley Scientific, Bingley, UK) with an atmosphere consisting of ≤0.02% O2, 5% CO2 and residual N2. Normoxic cells were grown in regular incubators with 21% O2, 5% CO2 at 37 °C.
(§2) The cytotoxic efficacy of the bio-reducible derivatives was determined based on cell viability assays using alamarBlue® (Invitrogen). In short, HT29 and HCT116 were seeded in 96-well plates and allowed to attach overnight. On the following day, the plates were exposed to normoxia or anoxia and medium was replaced with pre-incubated normoxic or anoxic DMEM. Compounds were dissolved in DMSO (0.5%, Sigma-Aldrich) and final concentrations were made with pre-incubated anoxic or normoxic DMEM and added to the wells after 24 h of exposure. Cells were exposed to compounds for a total of 2 h, after which the medium was washed off and replaced with fresh medium. Cells were allowed to grow for an additional 72 h under normoxic conditions prior to measurement. Cells were incubated with alamarBlue® for 2 h during normoxic conditions, which corresponds with their metabolic function, a measure for cell viability. Fluorescence was measured using plate reader (FLUOstar Omega, BMG LABTECH, Ortenberg, Germany) using a fluorescence excitation wavelength of 540–580 nm.
(§3) GraphPad Prism (version 5.03, GraphPad Software, San Diego, CA, USA) was used for all statistical analyses. For the cytotoxic compounds, IC50 values were estimated with the curve of the log (inhibitor) vs. normalized response (Variable slope).
On the technique in general: Alamar Blue is a resazurin reagent that responds to reducing activity.

In series [4] the target is hCA II (Homo sapiens, UniProt P00918). The series is described as follows: stopped flow CO2 hydrase assay, hCA II.
Experimental: as §7
The subject of series [5] is HT29 cells. The series is described as follows: alamarBlue cell viability assay, HT29. The class given is cell-based, human. The following applies: for IC50: Homo sapiens, HT-29, 2 h exposure, 72 h regrowth. Here is the method: as §1, §2, §3
The nature of series [6]: zebrafish embryo lethality (LC50). The class given is in vivo. The following applies: AB, zebrafish, in vivo, zebrafish embryos from 24 hpf, end of 5 days of exposure. Here is the method: (§4) The hypoxia-activated prodrugs were screened for their toxicity using 24-h post-fertilization zebrafish embryos as described earlier. The compounds were either dissolved in Embryonic medium (5.0 mM NaCl, 0.17 mM KCl, 0.33 mM CaCl2, 0.33 mM MgSO4, and 0.1% w/v Methylene Blue (Sigma-Aldrich, Darmstadt, Germany) or in dimethyl sulfoxide (DMSO) (Sigma-Aldrich, St. Louis, MO, USA) to prepare 100 mM stock solutions. Before the start of each experiment, the series of dilutions were made from the above stock in the embryonic medium.
(§5) The wild-type adult zebrafish (AB strains) were maintained at 28.5 °C in an incubator [35]. In each breeding tank, about embryos 3–5 pairs of male and female fish were set up overnight for collecting the embryos. The following morning, 1–2-h post-fertilization (hpf) embryos were collected in a sieve and rinsed with embryonic medium and kept the collected embryos in an incubator at 28.5 °C overnight. The toxicity evaluation studies of the compounds were performed using the fish that were 24-hpf. All the zebrafish experiments were performed at the zebrafish core facility, Tampere University, Finland, and according to the protocol used in our laboratory.
(§6) The LC50 values for all the three prodrugs were determined using 24-hpf embryos using […] different concentrations for each compound. We used a minimum of 30 zebrafish larvae for each concentration of the compound [28, 30, 36, 42]. The 24-hpf larvae were exposed to different concentrations of the inhibitors that ranged from 20 μM to […]. A dose response curve (DRC) was calculated using the DRM (model fitting function) of the DRC R package. The control group constituted an equal number of larvae not treated with any compound and the larvae that were treated with 1% DMSO. Toxicological evaluation studies were performed in 24-well plates (Corning V R Costar V R cell culture plates). In each well, we placed 1–2 24-hpf embryos in 1 mL of embryonic medium containing a diluted inhibitor. For control groups, 1% DMSO diluted in either embryonic medium or embryonic medium with no chemical compound. A minimum of three sets of experiments were carried out for each prodrug. The mortality of the larvae was checked every 24 h until 5 days after exposure to the prodrugs.

For series [7], the system named is zebrafish embryos. The series is described as follows: zebrafish embryo lethality (LC50). The class given is in vivo. The note with it: 500 μM. Here is the method: as §4, §5, §6
In series [8] the test system is zebrafish larvae. The series is described as follows: phenotypic analysis of zebrafish larvae. Type of series: in vivo. The following applies: for adverse effects on observable phenotypic parameters of the larvae: 20 μM–2 mM, 5 days post exposure; for phenotypic defects: zebrafish larvae, at lower concentrations compared to 1b. The procedure: as §4, §5
After exposure to the prodrugs, we evaluated the effects of these compound on the zebrafish larvae by analyzing the following eight phenotypic parameters: (1) mortality, (2) hatching (3) edema (4) swimming pattern, (5) yolk sack utilization, (6) heartbeat, (7) body shape, and (8) swim bladder development. The images of the developing larvae were taken using a Lumar V1.12 fluorescence microscope (Carl Zeiss MicroImaging GmbH, Göttingen, Germany) attached to a camera with a 1.5 lens (Carl Zeiss MicroImaging GmbH, Göttingen, Germany). The images were analyzed with AxioVision software versions 4.7 and 4.8 as described in our standard protocol for the assessment of the toxicity and safety of chemical compounds.

For series [9], the system named is zebrafish larvae. The note with it: 100 μM; cited from earlier work.
Where [10] appears, read: KI hCA I, mean from 3 different assays.
The mark [11] stands for this setting: HCT116, anoxia, read-out: IC50A.
Where [12] appears, read: HCT116, normoxia, read-out: IC50N.
Where [13] appears, read: HT29, normoxia, read-out: IC50N.

“And” between values parts separate entries of the source, which are not always exact repeats. Identical values can stand only once. Like-named read-outs stand apart in the source and are kept apart here.

Sequence of hCA I (P00915 whole entry): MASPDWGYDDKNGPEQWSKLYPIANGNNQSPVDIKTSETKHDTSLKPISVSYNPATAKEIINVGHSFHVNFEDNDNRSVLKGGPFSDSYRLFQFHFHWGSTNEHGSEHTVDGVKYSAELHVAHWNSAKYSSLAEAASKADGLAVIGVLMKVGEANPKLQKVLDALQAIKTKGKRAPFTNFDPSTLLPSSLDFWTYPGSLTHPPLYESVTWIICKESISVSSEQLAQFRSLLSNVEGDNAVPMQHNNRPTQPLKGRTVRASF

The Ki is the equilibrium dissociation constant of an inhibitor or competing ligand from its target. Regarding `Cc1ncc([N+](=O)[O-])n1CCOC(=O)NCCc1ccc(S(N)(=O)=O)cc1` [Compound 2b, 2-(2-methyl-5-nitro-1H-imidazol-1-yl) ethyl (4-sulfamoylphenethyl) carbamate], the Ki in [1] (setting [10]) worked out at 3.7 nM; in series [2] it was 12.1 nM; in series [4] it was 4.3 nM. The “Selectivity Ratio KI hCA II/KI hCA IX” value in series [2] is on record as 0.35. Moreover, the IC50 in series [3] (setting [11]) was more than 500000 nM; in [3] (setting [12]) it was more than 500000 nM; in series [5] (HT29, anoxia, read-out: IC50A), more than 500000 nM; in series [5] (setting [13]), more than 500000 nM.
Consider `Cc1ncc([N+](=O)[O-])n1CCOC(=O)NCc1ccc(S(N)(=O)=O)cc1` [Compound 2c, 2-(2-methyl-5-nitro-1H-imidazol-1-yl) ethyl (4-sulfamoylbenzyl) carbamate], for which the Ki in series [1] (setting [10]) stood at 2.3 nM; in series [2], 14.1 nM; in series [4], 4 nM. For the same compound, the “Selectivity Ratio KI hCA II/KI hCA IX” value in [2] came to 0.28. Also, the IC50 in series [3] (setting [11]) was more than 500000 nM; in series [3] (setting [12]) it was more than 500000 nM; in series [5] (HT29, anoxia, read-out: IC50A) it was more than 500000 nM; in series [5] (setting [13]), more than 500000 nM.
In the case of `NS(=O)(=O)c1ccc(CCNC(=O)OCCNC(=O)c2cc([N+](=O)[O-])ccc2N(CCCl)CCCl)cc1` [Compound 3b, 2-(2-(bis(2-chloroethyl)amino)-5-nitrobenzamido) ethyl (4-sulfamoylphenethyl) carbamate], the Ki in series [1] (setting [10]) was 83 nM; in series [2], 32.3 nM; in series [4], 3.1 nM. Further, in series [2], the “Selectivity Ratio KI hCA II/KI hCA IX” value was 0.09. Moreover, in series [3] (HCT116, hypoxia selectivity cytotoxicity ratio), the “HCR (IC50N/IC50A)” value is 2.7 and 2.74. In addition, the IC50 in series [3] (setting [11]) was 97300 nM; in series [3] (setting [12]), 267000 nM; in series [5] (HT29, anoxia, read-out: IC50A), more than 500000 nM; in series [5] (setting [13]) it was more than 500000 nM. Also, the cytotoxicity result in series [5] (HT29, normoxia and anoxia, tested concentrations) was “no cytotoxicity”.
Turning to `NS(=O)(=O)c1ccc(CNC(=O)OCCNC(=O)c2cc([N+](=O)[O-])ccc2N(CCCl)CCCl)cc1` [Compound 3c, 2-(2-(bis(2-chloroethyl)amino)-5-nitrobenzamido) ethyl (4-sulfamoylbenzyl)carbamate], the Ki turned out to be 2180 nM in [1] (setting [10]), 88.7 nM in series [2] and 83.7 nM in series [4]. In addition, in series [2], the “Selectivity Ratio KI hCA II/KI hCA IX” value came to 0.94. In addition, the IC50 is more than 500000 nM in [3] (setting [11]); more than 500000 nM in [3] (setting [12]); more than 500000 nM in series [5] (HT29, anoxia, read-out: IC50A); more than 500000 nM in series [5] (setting [13]).
In general, LC50 refers to the concentration that kills 50% of the test population. A higher LC50 goes with lower toxicity. As for `NS(=O)(=O)c1ccc(CCNC(=O)OCc2ccc([N+](=O)[O-])o2)cc1` [Compound 4b, (5-nitrofuran-2-yl)methyl (4-sulfamoylphenethyl) carbamate], the Ki was 84 nM and 83.8 nM in series [1] (setting [10]); 5.7 nM in [2]; 15.5 nM in series [4]. The compound also returned an LC50 in series [6] of approximately 500000 nM. In addition, the “mortality of the larvae” value in series [7] is reported as “significant mortality”. The “Selectivity Ratio KI hCA II/KI hCA IX” value in series [2] is on record as 2.72. Besides, the “adverse effects on observable phenotypic parameters of the larvae” value in series [8] was “adverse effect on hatching, swim bladder development, the utilization of the yolk sac, and the shape of the body and induced pericardial edema”. Also, the swim bladder development entry in series [8] (250 μM, at 5 days) was “absence of a swim bladder”. The phenotypic defects entry in series [8] was “phenotypic defects, such as edema and the absence of a swim bladder”.
Turning to `Cc1ncc([N+](=O)[O-])n1CCNS(N)(=O)=O` [DTP348], in series [9], the neurotoxic effect result was “induced a neurotoxic effect” and the swim pattern entry is “ataxic movement pattern”.
With “(5-nitrothiophen-2-yl)methyl(4-sulfamoylphenethyl)carbamate [Compound 5b]”, the Ki is 64.7 nM in [1] (read-out: KI hCA I, mean from 3 different assays); 15.1 nM in [2] (read-out: KI hCA IX, stopped flow CO2 hydrase assay, mean from 3 different assays); 19.8 nM in series [4] (read-out: KI hCA II, stopped flow CO2 hydrase assay, mean from 3 different assays). In addition, the “Selectivity Ratio KI hCA II/KI hCA IX” value in [2] amounted to 1.31. Further, the “adverse effects on observable phenotypic parameters of the larvae” value in series [8] is “adverse effect on hatching, swim bladder development, the utilization of the yolk sac, and the shape of the body and induced pericardial edema”. For the same compound, the edema entry in [8] (as early as 2 days post exposure) is recorded as “induced edema”. Moreover, the phenotypic defects entry in series [8] was “phenotypic defects, such as edema and the absence of a swim bladder”.
